Data taken from patent US10308686B2, “Gamma-AApeptides with potent and broad-spectrum antimicrobial activity” (priority 2012, dated 2019).
In brackets after ≈: the same amount, converted by molar mass. Read-outs that look alike come from different tables or passages of the source.

Key:
[1] = test system: human red blood cells (hRBC's); test: Hemolysis assay; assay type: cell-based; settings: for Hemolysis HC10 / Hemolysis HC50: red cells of human
Method: Freshly drawn human red blood cells (hRBC's) with additive K2 EDTA (spray-dried) were washed with PBS buffer several times and centrifuged at 1000 g for 10 min until a clear supernatant was observed. The hRBC's were resuspended in 1×PBS to get a 5% v/v suspension. Two-fold serial dilutions of γ-AApeptides dissolved in 1×PBS from 250 μg/ml through 1.6 μg/ml were added to a sterile 96-well plate to make up a total volume of 50 μL in each well. Then 50 μL of 5% v/v hRBC solution was added to make up a total volume of 100 μL in each well. The 0% hemolysis point and 100% hemolysis point were determined in 1×PBS and 0.2% Triton-X-100, respectively (Patch et al., 2003). The plate was then incubated at 37° C. for 1 h and centrifuged at 3500 rpm for 10 min. The supernatant (30 μL) was diluted with 100 μL of 1×PBS and absorption was detected by measuring the optical density at 360 nm by Biotek Synergy HT microtiter plate reader. % hemolysis was determined by the following equation: % hemolysis=(Abssample−AbsPBS)/(AbsTriton−AbsPBS)×100 H50 is the concentration of γ-AApeptide amphiphiles at which 50% hemolysis was observed. The highest concentration tested in the hemolytic assay was 500 μg/ml. 7. Fluorescence Microscopy
The sequences shown in FIG. 12 were also evaluated via hemolytic assays. Freshly drawn human red blood cells (hRBC's) with additive K2 EDTA (spray-dried) were washed with PBS buffer several times and centrifuged at 1000 g for 10 min until a clear supernatant was observed. The hRBC's were resuspended in 1×PBS to get a 5% v/v suspension. Two-fold serial dilutions of lipidated γ-AApeptides dissolved in 1×PBS from 1 mg/ml through 6.3 μg/ml were added to sterile 96-well plates to make up a total volume of 50 μL in each well. Then 50 μL of 5% v/v hRBC solution was added to make up a total volume of 100 μL in each well. The 0% hemolysis point and 100% hemolysis point were determined in 1×PBS and 0.2% Triton-X-100, respectively (Patch et al., 2003). The plate was then incubated at 37° C. for 1 h and centrifuged at 3500 rpm for 10 min. The supernatant (30 μL) was diluted with 100 μL of 1×PBS and absorption was detected by measuring the optical density at 360 nm with a Biotek Synergy HT microtiter plate reader. % hemolysis was determined by the following equation: % hemolysis=(Abs sample−Abs PBS)/(Abs Triton−Abs PBS)×100

[2] = test system: K. pneumoniae (ATCC 13383)
[3] = test system: multi-drug resistant P. aeruginosa ATCC 27853
[4] = test system: multi-drug resistant S. epidermidis (RP62A); settings: for MIC, Gram positive S. epidermidis: Table 7; for MIC, S. epidermidis (multi-drug resistant): Table 3
[5] = test system: vancomycin-resistant E. faecalis (ATCC 700802); settings: for MIC, Gram positive E. faecalis: Table 7; for MIC, E. faecalis (vancomycin-resistant): Table 3
[6] = test system: methicillin-resistant S. aureus (ATCC 33592); settings: for MIC, Gram positive S. aureus: Table 7; for MIC, S. aureus (methicillin-resistant): Table 3
C. albicans (ATCC 10231) = settings: ATCC 10231

SMILES | Hemolysis HC10 [1] [µg/mL] | Hemolysis HC50 [1] [µg/mL] | MIC, Gram negative E. coli (E. coli (JM109)) [µg/mL] | MIC, Gram negative K. pneumoniae [2] [µg/mL] | MIC, Gram negative P. aeruginosa ([3]; ATCC 27853) [µg/mL] | MIC, Gram positive B. subtilis (B. subtilis (BR151)) [µg/mL] | MIC, Gram positive S. epidermidis [4] [µg/mL] | MIC, Gram positive E. faecalis [5] [µg/mL] | MIC, Gram positive S. aureus [6] [µg/mL] | MIC, Fungi, C. albicans (C. albicans (ATCC 10231)) [µg/mL] | Hemolysis (H50) [1] [µg/mL] | MIC, E. coli (E. coli (JM109)) [µg/mL] | MIC, K. pneumoniae (causing pneumonia) [2] [µg/mL] | MIC, P. aeruginosa ([3]; ATCC 27853) [µg/mL] | MIC, B. subtilis (B. subtilis (BR151)) [µg/mL] | MIC, S. epidermidis (multi-drug resistant) [4] [µg/mL] | MIC, E. faecalis (vancomycin-resistant) [5] [µg/mL] | MIC, S. aureus (methicillin-resistant) [6] [µg/mL] | MIC, Fungi C. albicans (C. albicans (ATCC 10231)) [µg/mL] | MIC, P. aeruginosa ([3]; Table 3) [µg/mL]
CCCCCCCCCCCCCCCC(=O)N[C@@H](CCCCN)CN(CC(=O)N[C@@H](CCCCN)CN(CC(=O)N[C@@H](CCCCN)CN(CC(N)=O)C(=O)CCCN)C(=O)CCCN)C(=O)CCCN [Sequence 4] | 300 | > 500 | 20 (≈ 19.5 µM) | >50 | 15 (≈ 14.6 µM) | 1.5 (≈ 1.46 µM) | 2 (≈ 1.95 µM) | 10 (≈ 9.76 µM) | 5 (≈ 4.88 µM) | 2 (≈ 1.95 µM) | – | – | – | – | – | – | – | – | – | –
CC(=O)N(CC(=O)N[C@@H](C)CN(CC(=O)N[C@@H](CC(C)C)CN(CC(=O)N[C@@H](CC(C)C)CN(CC(=O)N[C@@H](CC(C)C)CN(CC(N)=O)C(=O)CCCN)C(=O)CCCN)C(=O)CCCN)C(C)=O)C[C@H](C)N [Sequence 9] | 120 | > 500 | >100 | >100 | >100 | >100 | >100 | >100 | >100 | >100 | – | – | – | – | – | – | – | – | – | –
CCCCCCCCCCCCCCCC(=O)N[C@@H](C)CN(CC(=O)N[C@@H](C)CN(CC(=O)N[C@@H](CCC(=O)O)CN(CC(=O)N[C@@H](CCC(=O)O)CN(CC(=O)N[C@@H](CCC(=O)O)CN(CC(N)=O)C(=O)CC(=O)O)C(=O)CC(=O)O)C(=O)CC(=O)O)C(C)=O)C(C)=O [Sequence 7] | 250 | > 500 | >100 | >100 | >100 | >100 | >100 | >100 | >100 | >100 | – | – | – | – | – | – | – | – | – | –
CCCCCCCCCCCCCCCC(=O)N[C@@H](CCCCN)CN(CC(=O)N[C@@H](CCCCN)CN(CC(N)=O)C(=O)CCCN)C(=O)CCCN [Sequence 3] | 40 | 300 | 30 (≈ 39.1 µM) | 20 (≈ 26 µM) | 20 (≈ 26 µM) | 1.5 (≈ 1.95 µM) | 2.5 (≈ 3.25 µM) | 8 (≈ 10.4 µM) | 5 (≈ 6.51 µM) | 2 (≈ 2.6 µM) | – | – | – | – | – | – | – | – | – | –
CCCCCCCC/C=C\CCCCCCCC(=O)N[C@@H](CCCCN)CN(CC(N)=O)C(=O)CCCN [Sequence 10] | 40 | 100 | 2.5 (≈ 4.65 µM) | 35 (≈ 65.1 µM) | 3 (≈ 5.58 µM) | 2 (≈ 3.72 µM) | 2 (≈ 3.72 µM) | 2.5 (≈ 4.65 µM) | 4 (≈ 7.44 µM) | 2 (≈ 3.72 µM) | – | – | – | – | – | – | – | – | – | –
CCCCCCCC/C=C\CCCCCCCC(=O)N[C@@H](CCCCN)CN(CC(N)=O)C(=O)CCCN [γAA7] | – | – | – | – | – | – | – | – | – | – | >500 | 2.5 (≈ 4.65 µM) | 50 (≈ 93 µM) | 2.5 (≈ 4.65 µM) | 2 (≈ 3.72 µM) | 1 (≈ 1.86 µM) | 2.5 (≈ 4.65 µM) | 5 (≈ 9.3 µM) | 1.5 (≈ 2.79 µM) | –
CCCCCCCCCCCCCCCC(=O)N[C@@H](CCCCN)CN(CC(N)=O)C(=O)CCCN [Sequence 2] | 25 | 40 | 2.5 (≈ 4.88 µM) | 35 (≈ 68.4 µM) | 10 (≈ 19.5 µM) | 1.5 (≈ 2.93 µM) | 2 (≈ 3.91 µM) | 2.5 (≈ 4.88 µM) | 2.5 (≈ 4.88 µM) | 2 (≈ 3.91 µM) | – | – | – | – | – | – | – | – | – | –
CCCCCCCC/C=C\CCCCCCCC(=O)N[C@@H](C)CN(CC(=O)N[C@@H](C)CN(CC(=O)N[C@@H](CC(C)C)CN(CC(=O)N[C@@H](CC(C)C)CN(CC(=O)N[C@@H](CC(C)C)CN(CC(N)=O)C(=O)CCCN)C(=O)CCCN)C(=O)CCCN)C(C)=O)C(C)=O [Sequence 13] | 100 | > 500 | 3 (≈ 2.28 µM) | 3 (≈ 2.28 µM) | 3 (≈ 2.28 µM) | 3 (≈ 2.28 µM) | 3 (≈ 2.28 µM) | 4 (≈ 3.04 µM) | 3 (≈ 2.28 µM) | 3 (≈ 2.28 µM) | – | – | – | – | – | – | – | – | – | –
CC(C)CCC(=O)N1CC(=O)N[C@@H](Cc2ccccc2)CN(C(=O)CCC(C)C)CC(=O)N[C@@H](Cc2ccccc2)CN(C(=O)CCC(C)C)CC(=O)N[C@@H](CCCCN)CN(C(=O)CCc2ccccc2)CC(=O)N[C@@H](CCCCN)CN(C(=O)CCc2ccccc2)CC(=O)N[C@@H](CCCCN)CN(C(=O)CCc2ccccc2)CC(=O)N[C@@H](Cc2ccccc2)CN(CC(N)=O)C(=O)CCC(=O)N[C@@H](Cc2ccccc2)C1 [γAA6] | – | – | – | – | – | – | – | – | – | – | 300 | 25 to 50 | 10 (≈ 4.84 µM) | – | 2 (≈ 0.969 µM) | 2 (≈ 0.969 µM) | 5 (≈ 2.42 µM) | 3 (≈ 1.45 µM) | 4 (≈ 1.94 µM) | 10 (≈ 4.84 µM)
CC(C)CCC(=O)N1CC(=O)N[C@@H](Cc2ccccc2)CN(C(=O)CCC(C)C)CC(=O)N[C@@H](CCCCN)CN(C(=O)CCc2ccccc2)CC(=O)N[C@@H](CCCCN)CN(C(=O)CCc2ccccc2)CC(=O)N[C@@H](CCCCN)CN(C(=O)CCc2ccccc2)CC(=O)N[C@@H](CCCCN)CN(C(=O)CCc2ccccc2)CC(=O)N[C@@H](Cc2ccccc2)CN(CC(N)=O)C(=O)CCC(=O)N[C@@H](Cc2ccccc2)C1 [γAA5] | – | – | – | – | – | – | – | – | – | – | 100 | 12.5 to 25 | 8 (≈ 3.85 µM) | 8 (≈ 3.85 µM) | 1 (≈ 0.481 µM) | 2 (≈ 0.962 µM) | 5 (≈ 2.4 µM) | 1 (≈ 0.481 µM) | 2 (≈ 0.962 µM) | –
CCCCCCCCCCCCCCCC(=O)N[C@@H](C)CN(CC(=O)N[C@@H](C)CN(CC(=O)N[C@@H](CCCCN)CN(CC(=O)N[C@@H](CCCCN)CN(CC(=O)N[C@@H](CCCCN)CN(CC(N)=O)C(=O)CCCN)C(=O)CCCN)C(=O)CCCN)C(C)=O)C(C)=O [Sequence 5] | 200 | > 500 | 2.5 (≈ 1.87 µM) | 15 (≈ 11.2 µM) | 15 (≈ 11.2 µM) | 2.5 (≈ 1.87 µM) | 10 (≈ 7.48 µM) | 10 (≈ 7.48 µM) | 10 (≈ 7.48 µM) | 7.5 (≈ 5.61 µM) | – | – | – | – | – | – | – | – | – | –
CCCCCCCC/C=C\CCCCCCCC(=O)N[C@@H](CCCCN)C(=O)N[C@@H](CCCCN)CN(CC(N)=O)C(=O)CCCN [Sequence 11] | 80 | > 500 | 10 (≈ 15 µM) | 40 (≈ 60.1 µM) | 15 (≈ 22.5 µM) | 2 (≈ 3 µM) | 2 (≈ 3 µM) | 2.5 (≈ 3.75 µM) | 5 (≈ 7.51 µM) | 5 (≈ 7.51 µM) | – | – | – | – | – | – | – | – | – | –
